Here are results for one molecule from PMC12005787, “Synthetic Lethality of SHP2 and XIAP Suppresses Proliferation and Metastasis in KRAS‐mutant Nonsmall Cell Lung Cancer” (Advanced Science, 2025).

Assay [1] deals with A549, NCI‐H2122, and NCI‐H1944 cells. Description: Effect of candidate drugs on cell viability and colony formation. In kind it is cell-based, human. As to conditions: 1, 10 and 50 μM viability; 10 µM colony formation. The method, then:
supplies are listed in Supplementary Table S5. The relevant reagents for protein extraction from Escherichia coli are listed in Supplementary Table S6. Inhibitory effects of embelin on KRAS-mutant and wild-type cells are listed in Supplementary Table S7.
For the adherent cell viability assay, cells in the logarithmic growth phase were seeded in 96-well culture plates at a density of 5×103 well-1 and incubated overnight. Diluted compounds or DMSO were added, or specific treatments were incubated at 37 °C and 5% CO2 for 24 h or 48 h. Cell viability was determined using CCK-8 or CellLightTM Cell Viability Assay Kit, according to the manufacturer's protocol. The luminescence signals of the treated samples were normalized to those of the DMSO group.
For spherical cell viability assays, cells in the logarithmic growth phase were inoculated ata density of 4×10^3 well-1 into 96-well spherical cell microplates and incubated at 37 °C, 5% CO2 for 24 h or 48 h. Cell viability was measured using the CellTiter-Glo® Luminescent Cell Viability 3D Cell Viability Assay Kit, according to the manufacturer’s protocol. The remaining steps were the same as those described above.
Colony formation experiment […]
Finally, the staining results were recorded using an inverted microscope. […]

A further assay addresses T1, PTP1B (Homo sapiens, UniProt P18031).
T1 construct: His; made in house; host or cells: E. coli
T1 sequence (P18031 1-435): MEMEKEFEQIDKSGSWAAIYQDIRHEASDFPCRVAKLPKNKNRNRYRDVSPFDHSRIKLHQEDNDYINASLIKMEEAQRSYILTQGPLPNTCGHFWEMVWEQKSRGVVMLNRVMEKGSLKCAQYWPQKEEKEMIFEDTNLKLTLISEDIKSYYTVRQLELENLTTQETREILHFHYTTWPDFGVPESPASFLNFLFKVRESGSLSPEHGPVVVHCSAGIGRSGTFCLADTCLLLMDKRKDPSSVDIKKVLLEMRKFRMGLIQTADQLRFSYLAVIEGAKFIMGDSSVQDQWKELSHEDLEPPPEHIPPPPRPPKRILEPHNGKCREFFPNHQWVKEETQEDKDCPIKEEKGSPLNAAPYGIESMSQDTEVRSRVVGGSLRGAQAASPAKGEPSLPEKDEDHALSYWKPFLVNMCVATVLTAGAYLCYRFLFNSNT
Description: PTPs activity assay (DiFMUP). As to conditions: read-out: IC50 of PTPs PTP1B. In kind it is biochemical. The protocol: (§1) Catalytic activity screening methods for PTPs using candidate compounds were performed as previously described.^[ [77] ^] In brief, soluble fusion PTP proteins, His‐ΔSHP2, encompassing the peptide from amino acids 205–593 retaining PTP activity, His‐ΔSHP2^K325A, His‐ΔSHP1, encompassing the peptide from amino acids 202–595 retaining PTP activity, His‐PTP1B, His‐HePTP, His‐VHR, and His‐TCPTP were cloned, expressed, and purified in E. coli. After determining protein concentration using bicinchoninic acid (BCA) assay kit, 1 µg fusion protein, 10 µM library compound were added in 100 µL reaction mixture (55 mM 4‐(2‐hydroxyethyl)‐1‐piperazineethanesulfonic acid [HEPES], 100 mM sodium chloride [NaCl], 0.5 mM ethylenediaminetetraacetic acid [EDTA], 1 mM dithiothreitol [DTT], 0.01% Triton X‐100, 0.002% bovine serum albumin [BSA], and 0.1% dimethyl sulfoxide [DMSO]) and incubated at 37 °C for 30 min in the dark, with Na3VO4 as positive control. The detection substrate DiFMUP (50 µM) was promptly added to each reaction and functioned at 37 °C for 30 min in the dark. The fluorescence intensity was then measured using Multimode Plate Reader (λa = 358 nm, λe = 455 nm, PerkinElmer, USA).

For the next assay, the target named is T2, TCPTP (Homo sapiens, UniProt P17706).
T2 construct: His; made in house; host or cells: E. coli
T2 sequence (P17706 1-415): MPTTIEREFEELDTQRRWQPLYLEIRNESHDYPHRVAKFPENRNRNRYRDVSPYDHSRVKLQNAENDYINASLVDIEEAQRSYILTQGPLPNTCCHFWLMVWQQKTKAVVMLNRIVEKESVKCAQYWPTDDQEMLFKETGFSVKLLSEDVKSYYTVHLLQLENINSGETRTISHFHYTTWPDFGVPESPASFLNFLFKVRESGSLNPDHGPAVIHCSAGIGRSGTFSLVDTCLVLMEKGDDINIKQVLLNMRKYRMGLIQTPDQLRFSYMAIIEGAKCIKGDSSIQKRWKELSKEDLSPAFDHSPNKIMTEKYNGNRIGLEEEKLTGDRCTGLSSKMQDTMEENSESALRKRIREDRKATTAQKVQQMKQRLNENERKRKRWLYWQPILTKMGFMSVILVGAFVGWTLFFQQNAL
Put plainly: PTPs activity assay (DiFMUP). In kind it is biochemical. The method, then: as §1

The target in the next assay is T3, VHR (Homo sapiens, UniProt P51452).
T3 construct: His; made in house; host or cells: E. coli
T3 sequence (P51452 whole entry): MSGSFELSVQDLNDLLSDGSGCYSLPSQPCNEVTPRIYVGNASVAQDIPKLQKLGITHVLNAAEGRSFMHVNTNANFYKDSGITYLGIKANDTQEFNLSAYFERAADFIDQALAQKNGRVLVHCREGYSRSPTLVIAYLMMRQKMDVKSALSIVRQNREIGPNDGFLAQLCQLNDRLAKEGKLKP
Put plainly: PTPs activity assay (DiFMUP). The assay is classed as biochemical. The protocol: as §1

For a further assay, the target named is T4, HePTP (Homo sapiens, UniProt P35236).
T4 construct: His; made in house; host or cells: E. coli
T4 sequence (P35236 1-360): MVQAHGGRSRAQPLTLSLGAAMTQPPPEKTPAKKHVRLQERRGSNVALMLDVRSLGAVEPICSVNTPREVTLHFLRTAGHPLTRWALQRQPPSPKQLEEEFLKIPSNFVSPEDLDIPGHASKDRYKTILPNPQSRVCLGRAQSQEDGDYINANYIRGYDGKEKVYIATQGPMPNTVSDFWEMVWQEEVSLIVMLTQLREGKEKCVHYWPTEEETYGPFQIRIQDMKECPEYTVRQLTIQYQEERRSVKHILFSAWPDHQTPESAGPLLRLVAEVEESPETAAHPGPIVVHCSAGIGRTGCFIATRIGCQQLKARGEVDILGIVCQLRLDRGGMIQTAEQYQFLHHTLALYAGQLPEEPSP
Description: PTPs activity assay (DiFMUP). In kind it is biochemical. The protocol: as §1

The target in another assay is T5, ΔSHP1 (Homo sapiens, UniProt P29350).
T5 construct: His‐ΔSHP1, encompassing the peptide from amino acids 202–595 retaining PTP activity; His; made in house; host or cells: E. coli
T5 sequence (P29350 202-595, stated change not applied): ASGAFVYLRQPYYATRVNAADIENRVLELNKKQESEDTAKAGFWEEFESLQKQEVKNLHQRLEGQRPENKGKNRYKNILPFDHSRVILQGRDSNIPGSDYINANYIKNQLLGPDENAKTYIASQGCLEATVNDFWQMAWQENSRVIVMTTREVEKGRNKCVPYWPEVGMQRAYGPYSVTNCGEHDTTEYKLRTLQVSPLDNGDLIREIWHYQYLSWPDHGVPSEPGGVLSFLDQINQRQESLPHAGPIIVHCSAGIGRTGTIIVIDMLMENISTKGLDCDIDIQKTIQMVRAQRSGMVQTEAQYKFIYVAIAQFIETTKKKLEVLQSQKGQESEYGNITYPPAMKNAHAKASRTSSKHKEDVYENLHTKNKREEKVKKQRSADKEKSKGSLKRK
Description: PTPs activity assay (DiFMUP). In kind it is biochemical. The protocol:
as §1

Another assay deals with T6, ΔSHP2 (Homo sapiens, UniProt Q06124).
T6 construct: His‐ΔSHP2, encompassing the peptide from amino acids 205–593 retaining PTP activity; His; made in house; host or cells: E. coli
T6 sequence (Q06124 205-593): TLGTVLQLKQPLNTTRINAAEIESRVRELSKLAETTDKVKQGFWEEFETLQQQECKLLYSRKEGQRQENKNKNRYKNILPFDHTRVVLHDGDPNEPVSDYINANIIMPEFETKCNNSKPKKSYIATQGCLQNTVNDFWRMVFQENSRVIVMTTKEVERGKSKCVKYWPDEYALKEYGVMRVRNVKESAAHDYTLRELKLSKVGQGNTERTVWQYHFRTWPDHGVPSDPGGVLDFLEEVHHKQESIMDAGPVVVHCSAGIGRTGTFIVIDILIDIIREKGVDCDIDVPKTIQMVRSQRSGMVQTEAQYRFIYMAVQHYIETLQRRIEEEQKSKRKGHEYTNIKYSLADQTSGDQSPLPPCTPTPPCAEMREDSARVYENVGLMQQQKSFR
Put plainly: PTPs activity assay (DiFMUP). In kind it is biochemical. The method, then:
as §1

Some results are limits rather than exact numbers.

Consider `CC1=NN(c2ccc(C)c(C)c2)C(=O)/C1=N\Nc1cccc(-c2cccc(C(=O)O)c2)c1O` [S2229, Eltrombopag Olamine], for which the “effect on proliferation of KRAS‐mutation cells” value in assay [1] was “inhibited the proliferation”. Besides, the IC50 on PTP1B was 145 µM; on TCPTP, > 200 µM; at VHR, 242 µM; against HePTP it was 202 µM; against ΔSHP1 it was > 200 µM; at ΔSHP2, 21.7 µM.
